Measured values published in patent US20230072421A1, “TARGETED RADIOPHARMACEUTICALS FOR THE DIAGNOSIS AND TREATMENT OF PROSTATE CANCER” (Bayer AS, priority 2019, published 2023).

Assays:
LNCaP cells = assay: Cell proliferation assay (CellTiter-Glo, 5-day exposure), LNCaP; assay type: cell-based, human; conditions: LNCaP, 1000 cells/well; Th-227 labelled at 375 kBq/nmol; 5-day exposure; mean of 1 to 6 experiments
Experimental: (§1) Inhibition of cell proliferation of Thorium-227 labeled PMSA SMOL ligands was tested different prostate cancer cell lines, namely 22Rv1, VCaP, C4-2 (all from ATCC, Manassas, Va., USA) and LNCaP (DMSZ, Braunschweig). Cells were seeded using the following conditions in 384 well plates (Corning) in 30 μl of growth media at 4000 cells/well for VCaP cells and 1000 cells/well for 22Rv1, C4-2 and LNCaP cells.
(§2) Cells were cultivated an incubator at 37° C. and 5% C02 over night. On the following days cells were treated in triplicates with serial dilutions of PSMA-SMOLs labeled with Th-227 at a specific activity of 375 kBq/nmol (RCP>70% as assessed by iTLC analysis; compounds where RCP was between 50-70% in individual experiments are marked with an * in the table) using a D300e Digital Dispenser (Tecan). In sister plates cell viability at treatment start (d=0) was determined using CellTiter-Glo® assay (CTG, Promega, Madison, Wis., USA), by adding 30 μl per well CTG solution, incubation for 10 min and reading of Luminescence in a PheraStarFSX instrument (BMG Labtech). After a 5-day exposure in the presenced of test compounds, cell viability of treated or untreated control cells was determined again using CellTiter-Glo® assay (Promega, Madison, Wis., USA). […] The DRC software is a Biobook Spreadsheet that was developed by Bayer AG and Bayer Business Services on the IDBS E-Workbook Suite platform (IDBS: ID Business Solutions Ltd., Guildford, UK).

22Rv1 cells = assay: Cell proliferation assay (CellTiter-Glo, 5-day exposure), 22Rv1; assay type: cell-based; conditions: 22Rv1, 1000 cells/well, Th-227 labelled at 375 kBq/nmol, mean of 1 to 6 experiments
Method in brief: (§3)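 Prostate cancer cells (VCaP 4000/well; 22Rv1, C4-2, LNCaP 1000/well), Th-227-labelled PSMA ligands, 5-day exposure; viability by CTG at start and end.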

VCaP cells = assay: Cell proliferation assay (CellTiter-Glo, 5-day exposure), VCaP; assay type: cell-based; conditions: 4000 cells/well, Th-227 labelled at 375 kBq/nmol, mean of 1 to 6 experiments
Method in brief: as §3

[1] = tested on: LNCaP human prostate cancer cells; assay: LNCaP xenograft efficacy study (T/C tumor area); assay type: in vivo, SCID mice
Method in brief: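 SCID mice with testosterone pellet bearing s.c. flank LNCaP xenografts (5×10^6 cells in Matrigel) were treated i.v. with a defined radioactive dose once tumors reached 35-50 mm^2 (n=10/group). Tumor area (caliper, longest diameter × perpendicular) measured 2-3× weekly; T/C ratio calculated from tumor areas when vehicle group closed.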

C4-2 cells = assay: Cell proliferation assay (CellTiter-Glo, 5-day exposure), C4-2; assay type: cell-based; conditions: C4-2, 1000 cells/well, Th-227 labelled at 375 kBq/nmol, mean of 1 to 6 experiments
Method in brief: as §3

[2] = molecular target: T1, PSMA-expressing LNCaP cells (Homo sapiens, UniProt Q04609); assay: Internalization assay (membrane bound and internalized Th-227); assay type: cell-based; conditions: 10 nM radiolabeled compound, Th-227 at 375 kBq/nmol, triplicates; for Internalized in LNCaP fmol/10^6 cells 30 min / Membrane bound in LNCaP fmol/10^6 cells 30 min: 30 min incubation; for Internalized in LNCaP fmol/10^6 cells 2 h / Membrane bound in LNCaP fmol/10^6 cells 2 h: 2 h incubation
T1 construct: PSMA-expressing LNCaP cells; endogenous in cells; host or cells: LNCaP
Experimental: For internalization assays 24 well plates (#3526, Corning) were coated with 200 μl Poly-L-Lysine (0.1 mg/ml, #3438-100-01, Fa. Cultrex) per well for 2 h at 37° C. […] Cells were incubated at 37° C. and 5% CO2 over night. On the following day 400 μl of the media were removed and a total of 200 μl growth medium added supplemented with PSMA-SMOLs labeled with Th-227 at 375 kBq/nmol in triplicates. Radiochemical purity of the labeling was analyzed by instant thin layer chromatography and found to be above 70% for all compounds used. The final concentration of radiolabeled SMOLs was in the test wells was 10 nM. Cells were incubated for 30 min or 2 h. After the incubation time supernatants were taken off and cells washed with PBS. Thereafter cells were washed twice with 0.2 ml 50 mM Glycine-HCl buffer (#55097, Sigma Aldrich) and once with PBS and the washing solutions combined in counting vials (#TK75-018, Fa. Corning) and subjected to gamma counting (1470 Wizard automatic gamma counter, Wallac). The resulting counts were attributed to membrane bound radioactivity. Cells were then lysed with 500 μl 0.3N NaOH (#181691.1211, Fa. PanReac AppliChem ITW Reagents) followed by another wash with 500 μl PBS. The NaOH lysate as well as the final wash were combined in vials and subjected to gamma counting as described above. Measured radioactivity was attributed to internalized fraction. Results were calculated as fmol of Th-227 per/10^cells in the membrane bound and internalized fractions from triplicate values.

[3] = tested on: VCap, C4-2, 22Rv1 and LnCap cells; assay: Cell proliferation assay, summary statements over several cell lines; assay type: cell-based
Experimental: as §1
as §2, with “On the following days cells were treated in triplicates with serial dilutions of PSMA-SMOLs labeled with Th-227 at a specific activity of 375 kBq/nmol (RCP>70% as assessed by iTLC analysis; compounds where RCP was between 50-70% in individual experiments are marked with an * in the table) using a D300e Digital Dispenser (Tecan).” left out

[4] = Example V, day 27 after start of therapy, once 750 kBq/kg
[5] = Example IV, day 36 after start of therapy, once 1 MBq/kg

T1 sequence (Q04609 whole entry): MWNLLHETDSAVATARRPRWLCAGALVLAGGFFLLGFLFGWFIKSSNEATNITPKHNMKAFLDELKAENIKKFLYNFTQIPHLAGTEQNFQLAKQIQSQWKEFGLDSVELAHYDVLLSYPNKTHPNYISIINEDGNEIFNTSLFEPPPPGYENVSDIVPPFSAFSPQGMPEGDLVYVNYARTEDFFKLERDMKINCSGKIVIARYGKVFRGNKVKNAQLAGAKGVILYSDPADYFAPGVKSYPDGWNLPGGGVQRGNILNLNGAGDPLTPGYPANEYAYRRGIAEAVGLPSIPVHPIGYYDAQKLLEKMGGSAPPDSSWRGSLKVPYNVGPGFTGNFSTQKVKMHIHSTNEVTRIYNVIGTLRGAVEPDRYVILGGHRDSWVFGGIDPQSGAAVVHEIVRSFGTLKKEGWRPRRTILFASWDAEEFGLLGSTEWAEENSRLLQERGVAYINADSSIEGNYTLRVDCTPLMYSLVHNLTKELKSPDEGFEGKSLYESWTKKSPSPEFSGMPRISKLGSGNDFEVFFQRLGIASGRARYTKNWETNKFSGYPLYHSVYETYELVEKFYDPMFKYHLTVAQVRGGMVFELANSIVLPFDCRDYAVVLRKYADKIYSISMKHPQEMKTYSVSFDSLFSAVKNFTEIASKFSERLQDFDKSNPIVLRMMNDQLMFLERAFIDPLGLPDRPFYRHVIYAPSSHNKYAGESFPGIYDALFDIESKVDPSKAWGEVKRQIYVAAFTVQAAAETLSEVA

Structure (SMILES) | Proliferation assay on cancer cell lines by TTCs Default Pivot #3 IC50 [kBq/mL] LnCap 1000cells 375kBq/nmol (mean) (LNCaP cells) | Proliferation assay on cancer cell lines by TTCs Default Pivot #3 IC50 [kBq/mL] 22Rv1 1000cells 375kBq/nmol (mean) (22Rv1 cells) | Proliferation assay on cancer cell lines by TTCs Default Pivot #3 IC50 [kBq/mL] VCap 4000cells 375kBq/nmol (mean) (VCaP cells) | T/Carea [1, 4] | Proliferation assay on cancer cell lines by TTCs Default Pivot #3 IC50 [kBq/mL] C4-2 1000cells 375kBq/nmol (mean) (C4-2 cells) | Internalized in LNCaP fmol/10^6 cells 30 min [2] | Membrane bound in LNCaP fmol/10^6 cells 30 min [2] | Internalized in LNCaP fmol/10^6 cells 2 h [2] | Membrane bound in LNCaP fmol/10^6 cells 2 h [2] | T/Carea ([1]; Example I, day 27, 1 x 750 kBq/kg) | T/Carea [1, 5] | antiproliferative activity on VCap, C4-2, 22Rv1 and LnCap cells (in words) ([3]; 227Th-labelled compounds bearing the HOPO chelator Example A) | antiproliferative activity on VCap and C4-2 cells (in words) ([3]; 227Th-labelled compounds, in comparison to 227Th-labelled examples 1-C monomer, dimer, trimer and tetramer)
CC1=CC2=C3[O][227Th-4]45678([O]C9=C(C=C(C)N(CC(=O)O)C9=[O+]4)C(=O)NCCN(CCCN(CCNC(=O)C4=C([O]5)C(=[O+]6)N(CC(=O)O)C(C)=C4)CCNC(=O)C4=C([O]7)C(=[O+]8)N(CC(=O)NC[C@H]5CC[C@H](C(=O)N[C@@H](Cc6ccc7ccccc7n6)C(=O)NCCCC[C@H](NC(=O)N[C@@H](CCC(=O)O)C(=O)O)C(=O)O)CC5)C(C)=C4)CCNC2=O)[O+]=C3N1CC(=O)O [Example 17-C monomer-227Th] | 0.04 kBq/mL | 0.86 kBq/mL | 1.48 kBq/mL | 0.36 | 0.5 kBq/mL |  |  |  |  |  |  |  | 
Cc1cc2c(c(=O)n1CC(=O)O)[O][227Th]13[O]c4c(cc(C)n(CC(=O)O)c4=O)C(=O)NCCN(CCCN(CCNC(=O)c4cc(C)n(CC(=O)O)c(=O)c4[O]1)CCNC(=O)c1cc(C)n(CC(=O)NCc4ccc(C(=O)N[C@@H](Cc5ccc6ccccc6n5)C(=O)NCCCC[C@H](NC(=O)N[C@@H](CCC(=O)O)C(=O)O)C(=O)O)nc4)c(=O)c1[O]3)CCNC2=O [34-C monomer-227Th] | 0.02 kBq/mL | 1.28 kBq/mL | 0.99 kBq/mL | 0.37 | 0.15 kBq/mL | 75 fmol/10^6 cells | 147 fmol/10^6 cells | 325 fmol/10^6 cells | 359 fmol/10^6 cells | 0.37 | 0.51 |  | 
Cc1cc2c(c(=O)n1CC(=O)O)[O][227Th]13[O]c4c(cc(C)n(CC(=O)O)c4=O)C(=O)NCCN(CCCN(CCNC2=O)CCNC(=O)c2cc(C)n(CC(=O)NCc4ccc(C(=O)N[C@@H](Cc5ccc6ccccc6n5)C(=O)NCCCC[C@H](NC(=O)N[C@@H](CCC(=O)O)C(=O)O)C(=O)O)nc4)c(=O)c2[O]1)CCNC(=O)c1cc(C)n(CC(=O)NCc2ccc(C(=O)N[C@@H](Cc4ccc5ccccc5n4)C(=O)NCCCC[C@H](NC(=O)N[C@@H](CCC(=O)O)C(=O)O)C(=O)O)nc2)c(=O)c1[O]3 [34-C dimer-227Th] | 0.02 kBq/mL | 1.36 kBq/mL | 1.25 kBq/mL | 0.38 | 0.46 kBq/mL | 100 fmol/10^6 cells | 79 fmol/10^6 cells | 299 fmol/10^6 cells | 185 fmol/10^6 cells |  | 0.46 |  | 
Cc1cc(C(=O)NCCN(CCCN(CCNC(=O)c2cc(C)n(CC(=O)NCc3ccc(C(=O)N[C@@H](Cc4ccc5ccccc5n4)C(=O)NCCCC[C@H](NC(=O)N[C@@H](CCC(=O)O)C(=O)O)C(=O)O)nc3)c(=O)c2[O-])CCNC(=O)c2cc(C)n(CC(=O)NCc3ccc(C(=O)N[C@@H](Cc4ccc5ccccc5n4)C(=O)NCCCC[C@H](NC(=O)N[C@@H](CCC(=O)O)C(=O)O)C(=O)O)nc3)c(=O)c2[O-])CCNC(=O)c2cc(C)n(CC(=O)NCc3ccc(C(=O)N[C@@H](Cc4ccc5ccccc5n4)C(=O)NCCCC[C@H](NC(=O)N[C@@H](CCC(=O)O)C(=O)O)C(=O)O)nc3)c(=O)c2[O-])c([O-])c(=O)n1CC(=O)O.[227Th+4] [34-C trimer 227Th] | 0.03 kBq/mL | 1.25 kBq/mL | 1.1 kBq/mL | 0.56 | 0.28 kBq/mL | 68 fmol/10^6 cells | 49 fmol/10^6 cells | 162 fmol/10^6 cells | 93 fmol/10^6 cells |  | 0.41 |  | 
Cc1cc2c(c(=O)n1CC(=O)O)[O][227Th]13[O]c4c(cc(C)n(CC(=O)O)c4=O)C(=O)NCCN(CCCN(CCNC(=O)c4cc(C)n(CC(=O)O)c(=O)c4[O]1)CCNC(=O)c1cc(C)n(CC(=O)NCc4ccc(C(=O)N[C@@H](Cc5ccc6ccccc6n5)C(=O)NCCCC[C@H](NC(=O)N[C@@H](CCC(=O)O)C(=O)O)C(=O)O)nc4)c(=O)c1[O]3)CCNC2=O [34-C monomer] |  |  |  |  |  |  |  |  |  |  |  | high antiproliferative activity | improved antiproliferative activity
